Measured values from US7955618B2, “Composition for treatment of inflammatory disorders” (Enceladus Pharmaceuticals B.V., priority 2001, dated 2011).

Legend:
[1] = system: AT-EAE (T cells and macrophages in spinal cord); settings: 50 mg/kg i.v. at 18 h and 6 h before perfusion
Experimental: Adoptive Transfer Experimental Autoimmune Encephalomyelitis (AT-EAE) was induced in female Lewis rats by intravenous injection of 10^7 MBP-specific T cells.
10 mg/kg prednisolone phosphate containing liposomes, as prepared according to Example I, were applied intravenously at 42 hours and 18 hours prior to sacrifice. Another group received 50 mg/kg methylprednisolone intravenously at 18 hours and 6 hours before perfusion. Control rats received empty liposomes and/or saline at equivalent time points.
T cells or macrophages in spinal cord were detected immunohistochemically in paraffin embedded tissue and apoptosis was assessed by the TUNEL assay and by morphological criteria. Student t test for grouped data was used for statistical analysis.

[2] = system: rat adjuvant arthritis model (paw inflammation); test: Rat adjuvant arthritis model, visual paw inflammation score; type: in vivo, Lewis rats; settings: for average inflammation score: day 15 until day 21, 6.5±0.56 on day 14, daily saline max 10.6±1.3 on day 20; for effect on course of the disease (paw inflammation): single injection, doses equal to liposomal drug, p>0.05 Kruskall-Wallis
Experimental: Lewis rats were immunized subcutaneously at the tail base with heat-inactivated Mycobacterium tuberculosis in incomplete Freund's adjuvant.
Assessment of the disease was performed by visually scoring paw inflammation severity, maximum score 4 per paw, and measuring disease-induced body weight loss. […] Rats were treated when the average score >6 (at day 14 or 15 after disease induction).

Molecule	clinical score ([1]; controls 3.2±0.3)	macrophage infiltration in spinal cord ([1]; controls 78±37) [macrophages/mm^2]	T cell infiltration in spinal cord ([1]; controls 115±51) [T cells/mm^2]	rate of T cell apoptosis in spinal cord tissue ([1]; mean±SD, control 16.1±4.3%) [%]	average inflammation score ([2]; 10 mg/kg daily for 7 days)	average inflammation score ([2]; 20 mg/kg daily for 7 days)	effect on course of the disease (paw inflammation) [2]	effect on course of the disease (paw inflammation) ([2]; listed as unencapsulated prednisolone phosphate)
C[C@H]1C[C@@H]2[C@H]([C@@H](O)C[C@@]3(C)[C@H]2CC[C@]3(O)C(=O)CO)[C@@]2(C)C=CC(=O)C=C12 [Methylprednisolone, methylprednisolone]	3.2±0.3	66±25	96±19	30.8±8.0				
prednisolone disodium phosphate [Unencapsulated prednisolone phosphate]					around 5.0	around 5.0	did not significantly alter the course of the disease	No effect
